According to patent US20100298377A1, “NOVEL SUBSTITUTED INDAZOLES, THE PREPARATION THEREOF AND USE OF SAME IN THERAPEUTICS” (SANOFI-AVENTIS, priority 2007, published 2010):
Like-named read-outs stand apart in the source and are kept apart here.

What was measured:
[1] = biological target: T1, Human S6K1 (24-421) T412E protein (Homo sapiens, UniProt P23443, T412E); assay: Determination of the IC50 for S6K1 (HTRF substrate phosphorylation test); type: biochemical; settings: S6K1 activated by PDK1, ATP 30 μM
T1 construct: Human S6K1 (24-421) T412E protein; made in house; host or cells: Sf21 insect cells
Protocol: Determination of the IC50 for S6K1
The inhibitory potential of the compounds for S6K1 is evaluated in an enzymatic test of phosphorylation of substrate in HTRF (Homogenous Time-Resolved Fluorescence) format. Human S6K1 (24-421) T412E protein is expressed in sf21 cells and purified by chromatography on a nickel chelate column. It is activated by PDK1.
The test comprises two steps, both performed at RT. The phosphorylation reaction takes place during the first step and the revelation step is performed during the second. […] The final concentrations of compounds thus obtained during the incubation period range from 10 μM to 0.17 nM and the concentration of enzyme is 2 nM. After incubation for 20 minutes, the reaction is stopped and the revelation initiated by addition of 30 μl of a mixture of streptavidin XL 665 Xlent, ref. 611SAXLB Cis bio international, and a europium cryptate-coupled anti-phospho-GSK3 antibody, ref. 64CUSKAZ Cis bio international, dissolved in the revelation buffer (HEPES/NaOH 166.7 mM, EDTA 221.7 mM, KF 667.7 mM, BSA 0.167%, pH 7.0). The reaction takes place in a black half-well plate ref. 3694 Costar.
A mixture of the reaction medium after each addition of reagent is obtained by agitation for a few minutes at 700-1000 rpm on a Heidolph Titramax 100 machine. The reading is taken on a TECAN Ultra Evolution machine after at least one night and up to 3 nights at 4° C. The reading settings are as follows: excitation wavelength 320 nm, emission wavelengths 620 and 665 nm, lag time 150 μs, integration time 500 μs.
For each point, the ΔF % is calculated as follows:
(§1) R(Ratio)=counts665 nm/counts620 nm
The IC50 values are calculated by means of the XLfit4 205 equation.

[2] = tested on: MIA PaCa-2 cells (human pancreatic carcinoma cells); assay: Proliferation of MIA PaCa-2 cells, intracellular ATP, CellTiter-Glo test; type: cell-based; settings: 96 hours
Excerpt: (§2) b. Study of the Proliferation of Human Tumoral MIA PaCa-2, C-433, LnCaP and MCF7 Cells via Assay of the Intracellular ATP Using the Celltiter-Glo™ Test
(§3) The kit CellTiter-Glo™ for measuring cell viability via luminescence ([…]) is a homogeneous method for determining the number of viable cells in culture, based on quantification of the ATP present in the cells, and which indicates the presence of metabolically active cells.
(§4) The cell lines used in this test were the following: MIA PaCa-2 cells (human pancreatic carcinoma cells, ATCC, CRL-1420), C-433 cells (human Ewing sarcoma cells, DSMZ, ACC 268), LNCaP clone FGC cells (human prostate carcinoma cells, ATCC, CRL-1740), MCF7 cells (human breast carcinoma cells, ECACC, #86012803). The cells MIAPaCa-2 and LNCaP were cultured in D-MEM culture medium (Invitrogen Gibco, #419656-039) containing 10% foetal calf serum (FCS, Invitrogen Gibco, #10500-064) and 2 mM L-Glutamine (Invitrogen Gibco, #25030-024); the C-433 cells were cultured in MCCoy's 5A culture medium (Invitrogen Gibco, #26600-023)/RPMI 1640 (Invitrogen Gibco, #31870-025) (50/50) containing 10% FCS and 2 mM L-glutamine; the MCF7 cells were cultured in EMEM culture medium (EMEM, Biowhittaker, Lonza, #BE12-662F) containing 10% FCS and 2 mM L-Glutamine.
(§5) Evaluation of the Cell Viability via Luminescence Measurement: Celltiter-Glo™ Test
(§6) On day 1, the cells were inoculated at 1000 (C-433), 2500 (MCF7) and 10000 (LNCaP and MIA PaCa-2) cells per well in black-bottomed 96-well microplates (NUNC fluoronunc, Fisherbioblock 2311K) in 135 μl of whole culture medium and incubated at 37° C., 5% CO2, for 3 to 6 hours. The cells were then incubated with increasing concentrations of molecules diluted in dimethyl sulfoxide (DMSO, Sigma D2650). The molecules were added in a volume of 15 μl of a 10-fold concentrated solution in a final volume of 150 μl, the final percentage of DMSO being 0.1%. The cells were incubated at 37° C., 5% CO2, for 96 hours. After 4 days of treatment with the molecules, the CellTiter-Glo™ was performed by following the manufacturer's instructions (Kit Celltiter-Glo Luminescent, PROMEGA #G7571). Briefly, the cell plates were equilibrated for about 30 minutes at RT and 100 μl per well of Celltiter-Glo reagent were added. The cells were incubated for 1 hour at RT for lysis of the cells and stabilization of the signal. The intracellular ATP was quantified by measuring the luminescence in rlu units (relative luminescence units), 96 hours after initiation of the treatment, using a luminescence counter (Wallac). The tests were performed in six replicates.
(§7) i) the mean±s.e.m. of each series of well replicates was calculated;
(§8) ii) the maximum response is given by positive control wells containing untreated cells; this control was performed in 12 replicates;
(§9) iii) the minimum response is given by cell-free and untreated negative control wells; this control was performed in 6 replicates;
(§10) iv) using these maximum (100%) and minimum (0%) response values, respectively, the data were normalized to give a percentage relative to the maximum response;
(§11) The IC50 values were calculated by […] with the XLfit software (IDBS, UK) using formula 205.

[3] = biological target: AKT1 (Homo sapiens, UniProt P31749, S473D); assay: Determination of the IC50 for AKT1 (HTRF); type: biochemical; settings: AKT1 without PH domain, activated by PDK1
Protocol: Determination of the IC50 for AKT1
The inhibitory potential of the compounds is evaluated by HTRF, a time-resolved fluorescence technique based on non-radiative energy transfer (FRET). […] This phosphorylation allows the kinase activity of AKT1 to be activated.
Starting with a 10 mM solution of inhibitors, 3 μl are taken and placed in a 96-well polypropylene plate containing 27 μl of 100% DMSO. The various test compounds are diluted in cascade by taking 15 μl of compound, to which are added 30 μl of 100% DMSO.
The various reaction components are added in the following manner:
Next, 10 μl of the inhibitor solution are added. Finally, the reaction is initiated by adding 10 μl of a solution containing both 100 μM of ATP and 10 μM of biotinylated peptide. The sequence of this peptide is as follows: biot-[…] (reference Neosystem SP000560). The plate is then covered with a plastic film, agitated and finally incubated at RT for 30 minutes. […] After incubation overnight at 4° C., the plate is read using an Ultra evolution spectrophotometer from Tecan. […] All the tests are performed in duplicate and the mean of the two tests is calculated.
For each point, a delta F is calculated in the following manner:
as §1
ΔF % is calculated by the Tecan Ultra Evolution machine.

[4] = tested on: MEF-IGF1 murine fibroblast cells; assay: IGF1-dependent proliferation of MEF-IGF1 cells via incorporation of [14C]-thymidine; type: cell-based; settings: [14C]-thymidine incorporation, IGF1 stimulated, 72 hours, read-out: IC50 MEF-IGF
Excerpt: a. Study of the IGF1-Dependent Proliferation of MEF-IGF1 Murine Fibroblast Cells Measured via Incorporation of [14C]-Thymidine
This test is based on the incorporation of [^14C]-thymidine into the DNA of the cells for the S phase of the cell cycle during cell division. The cell line used in this test is the MEF/3T3 Tet-Off Clone 18 line obtained by stable transfection of the human receptor IGF1R in murine MEF/3T3 Tet-Off fibroblasts. To measure the IGF1-dependent cell proliferation, the cells were deprived of serum and cultured for 3 days in the serum-free culture medium in the presence of the growth factor IGF1 which stimulates the proliferation of MEF-IGF1 cells.
Test of Incorporation of [^14C]-Thymidine into MEF-IGF1 Cells
On day 1, the cells were inoculated with 7500 cells per well in Cytostar 96-well microplates (Amersham (GE) RPNQ0162) in 200 μl of EMEM medium (EMEM, Biowhittaker, #BE12-662F) containing 10% foetal calf serum (FCS, TET-BD Biosciences Tet System Approved FBS US-Sourced, #8630-1) and 1% PSG (Penicillin-Streptomycin-Glutamine (PSG), Gibco #10378-016), and incubated at 37° C., 5% CO2, for 24 hours. On day 2, the cells were washed in the FCS-free EMEM culture medium containing 1% PSG, and incubated in 170 μl of this serum-free culture medium at 37° C., 5% CO2, for 24 hours. On day 3, the cells were incubated with 10 μl of IGF1 (2 μg/ml of final concentration; recombinant human IGF-1, R & D Systems, #291-G1), 10 μl (0.1 μCi) of [^14C]-Thymidine (NEN NEC-568) plus 10 μl of increasing concentrations of the test molecules, diluted in dimethyl sulfoxide (DMSO, Sigma D2650). The molecules were added in a volume of 10 μl of a 20-fold concentrated solution in a final volume of 200 μl, the final percentage of DMSO being 0.1%. The treated cells were incubated at 37° C., 5% CO2, for 72 hours. The incorporation of [^14C]-Thymidine was quantified in cpm units (counts per minute) by counting the radioactivity 72 hours after the start of the treatment, using a Micro-Beta radioactivity counter (Perkin-Elmer). The tests were performed in duplicate.
as §7
ii) the background noise is calculated by preparing cell-free, IGF1-free and untreated control wells; this control was performed in 4 replicates. The background noise was removed at each measurement;
iii) the maximum response is given by positive control wells containing cells in the presence of IGF1 but untreated; this control was performed in 4 replicates;
iv) the minimum response is given by negative control wells containing IGF1-free and untreated cells; this control was performed in 4 replicates;
as §11

[5] = tested on: LNCaP clone FGC cells (human prostate carcinoma cells); assay: Proliferation of LNCaP cells, intracellular ATP, CellTiter-Glo test; type: cell-based; settings: 96 hours
Excerpt: as §2, §3, §4, §5, §6, §7, §8, §9, §10, §11

[6] = tested on: C-433 cells (human Ewing sarcoma cells); assay: Proliferation of C-433 cells, intracellular ATP, CellTiter-Glo test; type: cell-based; settings: 96 hours
Excerpt: as §2, §3, §4, §5, §6, §7, §8, §9, §10, §11

[7] = tested on: MCF7 cells (human breast carcinoma cells); assay: Proliferation of MCF7 cells, intracellular ATP, CellTiter-Glo test; type: cell-based; settings: 96 hours
Excerpt: as §2, §3, §4, §5, §6, §7, §8, §9, §10, §11

Sequence of AKT1 (P31749 118-480 S473D limits assumed): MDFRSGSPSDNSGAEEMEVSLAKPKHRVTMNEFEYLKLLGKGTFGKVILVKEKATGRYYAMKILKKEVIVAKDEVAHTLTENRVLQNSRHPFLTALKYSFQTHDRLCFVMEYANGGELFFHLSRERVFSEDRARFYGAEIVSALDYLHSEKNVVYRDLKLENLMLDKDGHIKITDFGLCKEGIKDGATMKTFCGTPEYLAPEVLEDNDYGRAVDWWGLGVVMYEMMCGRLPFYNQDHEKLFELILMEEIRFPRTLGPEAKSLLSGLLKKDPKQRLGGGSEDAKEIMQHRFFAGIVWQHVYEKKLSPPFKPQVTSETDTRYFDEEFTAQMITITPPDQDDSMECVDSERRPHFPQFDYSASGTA
T1 sequence (P23443 24-421 T412E): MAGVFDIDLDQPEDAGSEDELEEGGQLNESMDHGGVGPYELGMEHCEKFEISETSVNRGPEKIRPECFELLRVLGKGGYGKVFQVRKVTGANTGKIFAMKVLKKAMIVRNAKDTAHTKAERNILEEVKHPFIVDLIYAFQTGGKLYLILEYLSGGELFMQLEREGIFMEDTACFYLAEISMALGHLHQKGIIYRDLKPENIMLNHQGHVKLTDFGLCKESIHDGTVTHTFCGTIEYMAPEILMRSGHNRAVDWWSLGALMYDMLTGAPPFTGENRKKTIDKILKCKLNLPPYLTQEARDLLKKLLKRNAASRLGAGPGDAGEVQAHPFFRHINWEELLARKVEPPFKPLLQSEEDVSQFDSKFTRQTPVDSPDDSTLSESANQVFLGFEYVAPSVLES

O=C(Nc1ccc2[nH]ncc2c1)N[C@H](c1ccc(Cl)c(Cl)c1)[C@H]1CCCCN1 [Ex 6, 1-{(R)-(3,4-Dichlorophenyl)[(2R)-piperid-2-yl]methyl}-3-(1H-indazol-5-yl)urea]
IC50 [1]: 100 to 500 nM
IC50 [2]: 2900 nM
IC50 [3]: < 100 nM

O=C(Nc1ccc2[nH]ncc2c1)N[C@@H](c1cc(Cl)cc(Cl)c1)[C@@H]1CCCCN1 [Ex 7, 1-{(S)-(3,5-Dichlorophenyl)[(2S)-piperid-2-yl]methyl}-3-(1H-indazol-5-yl)urea]
IC50 ([4]; Mus musculus, Fibroblast): 280 nM
IC50 [2]: 9320 nM
IC50 ([5]; Homo sapiens, LNCaP-Clone-FGC): 5000 nM
IC50 [3]: < 100 nM

CN1CCCCC1C(NC(=O)Nc1ccc2[nH]nc(-c3ccccn3)c2c1)c1ccccc1 [Ex 15, 1-[(1-Methylpiperid-2-yl)(phenyl)methyl]-3-(3-pyrid-2-yl-1H-indazol-5-yl)urea((S,2S),(R,2R))]
IC50 [2]: 2800 nM
IC50 [3]: 100 to 500 nM

O=C(Nc1ccc2[nH]nc(-c3ccncc3)c2c1)N[C@@H](c1ccc(Cl)c(Cl)c1)[C@@H]1CCCCN1 [Ex 16, 1-{(S)-(3,4-Dichlorophenyl)[(2S)-piperid-2-yl]methyl}-3-(3-pyrid-4-yl-1H-indazol-5-yl)urea]
IC50 [2]: 7790 nM
IC50 [3]: 100 to 500 nM

CN1CCCCC1C(NC(=O)Nc1ccc2[nH]nc(-c3nc4ccccc4[nH]3)c2c1)c1ccccc1 [Ex 17, 1-[3-(1H-Benzimidazol-2-yl)-1H-indazol-5-yl]-3-[(1-methylpiperid-2-yl)(phenyl)methyl]urea((S,2S),(R,2R))]
IC50 ([4]; Mus musculus, Fibroblast): 2230 nM
IC50 ([5]; Homo sapiens, LNCaP-Clone-FGC): 670 nM
IC50 [3]: < 100 nM

CN1CCCCC1C(NC(=O)Nc1cc(F)c2[nH]nc(N)c2c1)c1ccccc1 [Ex 20, 1-(3-Amino-7-fluoro-1H-indazol-5-yl)-3-[(1-methylpiperid-2-yl)(phenyl)methyl]urea((S,2S),(R,2R))]
IC50 [2]: 10000 nM
IC50 [3]: 100 to 500 nM

CN1CCCCC1C(NC(=O)Nc1ccc2[nH]nc(C#Cc3ccccc3)c2c1)c1ccccc1 [Ex 23, 1-[(1-Methylpiperid-2-yl)(phenyl)methyl]-3-[3-(phenylethynyl)-1H-indazol-5-yl]urea((S,2S),(R,2R))]
IC50 [1]: 500 to 2000 nM
IC50 [2]: 930 nM
IC50 [3]: < 100 nM

CN1CCCCC1C(NC(=O)Nc1ccc2[nH]nc(CCc3ccccc3)c2c1)c1ccccc1 [Ex 27, 1-[(1-Methylpiperid-2-yl)(phenyl)methyl]-3-[3-(2-phenylethyl)-1H-indazol-5-yl]urea((S,2S),(R,2R))]
IC50 [2]: 1500 to 7000 nM
IC50 [3]: 100 to 500 nM

(7-Fluoro-1H-indazol-5-yl)-(S)-(3,4-dichlorophenyl)-(S)-piperid-2-ylmethyl carbamate [Ex 48]
IC50 [4]: 295 nM
IC50 [6]: 505 nM
IC50 [5]: 1350 nM
IC50 [7]: 1500 nM
IC50 [3]: < 100 nM
